Measured values reported in patent US4089965A, “Thiazolylphenylguanidines as antirhinovirus agents” (American Cyanamid Company, priority 1977, dated 1978).
Converted amounts (≈) assume the structure as drawn.

Tests used:
Rhinovirus Serotype 1B = test: Plaque assay, minimal inhibitory concentration; type: cell-based; settings: Enterovirus, inhibiting virus plaque formation by 50%
Rhinovirus Serotype 12 = test: Plaque assay, minimal inhibitory concentration; type: cell-based; settings: Enterovirus; HeLa Cells; inhibiting virus plaque formation by 50%
Coxsackievirus A-11 = test: Plaque assay, minimal inhibitory concentration; type: cell-based; settings: HeLa Cells, inhibiting virus plaque formation by 50%
Coxsackievirus B-5 = test: Plaque assay, minimal inhibitory concentration; type: cell-based; settings: HeLa Cells, inhibiting virus plaque formation by 50%
Rhinovirus strain 14 = test: Protection of tissue from cytopathic effects (plaque inhibition, filter paper disc or agar overlay); settings: 33°, 3 to 5 days

Q: For `N=C(Nc1ccccc1)Nc1nc(-c2ccccc2)cs1` [1-(4-phenyl-2-thiazolyl)-3-phenylguanidine], which IC50 (Rhinovirus Serotype 1B; L132, L-132 Cells) is on record?
A: Its IC50 is 0.8 µg/mL (≈ 2.72 µM).

Q: And the IC50 (Rhinovirus Serotype 1B; HeLa Cells)?
A: Its IC50 is 0.8 to 1.6 µg/mL (≈ 2.72 to 5.44 µM).

Q: What about the IC50 (Rhinovirus Serotype 12) of the same molecule?
A: The IC50 was 0.2 to 0.4 µg/mL (≈ 0.679 to 1.36 µM).

Q: And the IC50 (Coxsackievirus A-11)?
A: Its IC50 is 1.6 to 3.1 µg/mL (≈ 5.44 to 10.5 µM).

Q: What about the IC50 (Coxsackievirus B-5) of the same molecule?
A: Its IC50 is 0.8 to 1.6 µg/mL (≈ 2.72 to 5.44 µM).

Q: And the “Protection of tissue from destruction by virus” value (Rhinovirus strain 14)?
A: Its value is “+”.
